Data as given in patent publication US6933321B2, “Antiandrogenic biphenyls” (Endorecherche, Inc., priority 2002, dated 2005).
Read-outs that look alike come from different tables or passages of the source.

Tested on: Shionogi mouse mammary carcinoma cells
Experiment: Antiandrogenic activity on DHT-stimulated Shionogi mouse mammary carcinoma cell number
Format: cell-based
Details: for A = Ki OH-Flu/Ki compound: ratio of Ki of hydroxyflutamide versus tested compound, higher values preferable
[1] = Mus musculus, read-out: Antiandrogenic activity IC50 (nM)
[2] = inhibition of DHT-stimulated Shionogi cell number
[3] = Mus musculus, inhibition of DHT-stimulated Shionogi cell number, 10-12 days, read-out: Antiandrogenic activity IC50

Structure (SMILES) | IC50 [1] | A = Ki OH-Flu/Ki compound [2] | IC50 [3] | IC50 (inhibition of DHT-stimulated Shionogi cell number, 10-12 days, read-out: Antiandrogenic activity IC50)
N#Cc1ccc(-c2ccc([N+](=O)[O-])c(C(F)(F)F)c2)cc1 [EM-4180] | > 500 nM | <0.2 |  | 
Cc1ccc(-c2ccc(C#N)c(C(F)(F)F)c2)c(C(F)(F)F)c1 [EM-4185] |  | 0.7 | 193 nM | 
C[C@@](O)(c1cccc(-c2ccc(C#N)c(C(F)(F)F)c2)c1)C(F)(F)F [EM-4264] | 54 nM | 1.6 |  | 
N#Cc1cc(F)ccc1-c1ccc(C#N)c(C(F)(F)F)c1 [EM-4096] |  | <0.2 | > 500 nM | 
COc1ccc(-c2ccc([N+](=O)[O-])c(C(F)(F)F)c2)cc1 [EM-3393] |  | 0.4 | 129 nM | 
N#Cc1ccc(-c2ccc(F)cc2C(N)=O)cc1C(F)(F)F [EM-4171, 4′-Cyano-4-fluoro-3′-trifluoromethyl-biphenyl-2-carboxylic acid amide] |  | 0.2 | 943 nM | 
N#Cc1ccc(-c2ccc(F)cc2C(=O)N2CCCCC2)cc1C(F)(F)F [EM-5020] | > 500 nM | <0.2 |  | 
N#Cc1ccc(-c2ccc(F)c(F)c2)cc1C(F)(F)F [EM-4047] | > 100 nM | <1 |  | 
N#Cc1ccc(-c2ccc(F)cc2)cc1C(F)(F)F [EM-3705] |  | 0.7 | 129 nM | 
N#Cc1ccc(-c2ccc(C#N)c(C(F)(F)F)c2)c([N+](=O)[O-])c1 [EM-4253] |  | <0.2 | > 500 nM | 
N#Cc1ccc(-c2c(F)cc(F)cc2F)cc1C(F)(F)F [EM-4203] |  | 0.6 | 280 nM | 
N#Cc1ccc(-c2ccc(C#N)c(C(F)(F)F)c2)cc1 [EM-3730] |  |  | 190 nM | 152 nM
CSc1ccc(-c2ccc(C#N)c(C(F)(F)F)c2)cc1 [EM-3732] |  | <0.2 | > 500 nM | 
N#Cc1ccc(-c2ccc(F)cc2C(=O)Nc2ccncc2)cc1C(F)(F)F [EM-5019] |  | <0.2 | > 500 nM | 
N#Cc1ccc(-c2ccc(F)cc2C(N)=O)cc1Cl [EM-4849] |  | <0.2 | > 500 nM | 
N#Cc1ccc(-c2cc(NC(=O)c3ccc(Cl)cc3)c(F)cc2C(N)=O)cc1C(F)(F)F [EM-5003] |  | <0.2 | > 500 nM | 
N#Cc1ccc(-c2ccc(C#N)c(C(F)(F)F)c2)c(C(N)=O)c1 [EM-4320] |  | <0.2 | > 500 nM | 
N#Cc1ccc(-c2ccccc2C(F)(F)F)cc1C(F)(F)F [EM-4034] |  | <0.2 | > 500 nM | 

Structure (SMILES) | IC50 [1] | A = Ki OH-Flu/Ki compound [2] | IC50 [3] | IC50 (inhibition of DHT-stimulated Shionogi cell number, 10-12 days, read-out: Antiandrogenic activity IC50)
N#Cc1ccc(-c2ccc(F)c(C(F)(F)F)c2)cc1C(F)(F)F [EM-4093] |  | <0.2 | > 500 nM | 
N#Cc1ccc(-c2ccc(N)cc2C(F)(F)F)cc1C(F)(F)F [EM-4154] |  | 0.7 | 145 nM | 
N#Cc1ccc(-c2ccc(C#N)c(C(F)(F)F)c2)cc1C(F)(F)F [EM-4012] |  | <0.2 | > 500 nM | 
CC(=O)Nc1ccc(-c2ccc(C#N)c(C(F)(F)F)c2)cc1 [EM-4243] |  | <0.2 | > 500 nM | 
N#Cc1ccc(-c2c(NC(=O)c3ccc(Cl)cc3)cc(F)cc2C(N)=O)cc1C(F)(F)F [EM-5094] |  | <0.2 | > 500 nM | 
N#Cc1ccc(-c2ccccc2F)cc1C(F)(F)F [EM-3976] |  | <0.2 | > 500 nM | 
N#Cc1ccc(-c2ccc(C#N)c(C(F)(F)F)c2)c(Cl)c1 [EM-4205] | 52 nM | 3.0 |  | 
N#Cc1ccccc1-c1ccc(C#N)c(C(F)(F)F)c1 [EM-4071] | 33 nM | 2.5 |  | 
N#Cc1ccc(-c2cc(F)cc(F)c2)cc1C(F)(F)F [EM-3974] |  | <0.2 | > 500 nM | 
COc1ccc(-c2c(F)cc(F)cc2F)cc1C(F)(F)F [EM-4833] |  | <0.2 | > 500 nM | 
N#Cc1ccc(-c2ccc([N+](=O)[O-])cc2)cc1C(F)(F)F [EM-4149] |  | <0.2 | > 500 nM | 
N#Cc1ccc(-c2ccc(C#N)cc2)cc1 [EM-3993] |  | <0.2 | > 500 nM | 
N#Cc1ccc(-c2ccc(Br)cc2C(F)(F)F)cc1[N+](=O)[O-] [EM-4792] |  | <0.2 | > 500 nM | 
N#Cc1ccc(-c2ccc(F)cc2C(=O)Nc2ccccc2)cc1C(F)(F)F [EM-4864] | > 500 nM | <0.2 |  | 
CSc1ccc(NC(=O)c2cc(F)ccc2-c2ccc(C#N)c(C(F)(F)F)c2)cc1 [EM-5082] |  | <0.2 | > 500 nM | 
N#Cc1ccc(-c2ccc(F)cc2)cc1 [EM-3978] |  | <0.2 | > 500 nM | 
N#Cc1ccc(-c2ccc(F)cc2C(F)(F)F)cc1C(F)(F)F [EM-4296] |  | <0.2 | > 500 nM | 
CCNC(=O)c1cc(F)ccc1-c1ccc(C#N)c(C(F)(F)F)c1 [EM-4866] |  | <0.2 | > 500 nM | 
